Values after ≈ are worked out from the molar mass of the structure shown. Read-outs that look alike come from different tables or passages of the source.
What was measured:
MV4;11 (leukemia) = assay: Cell proliferation assay (ATPlite), MV4;11; type: cell-based; settings: 4 days, read-out: Growth inhibition (IC50)
HCC827 (lung) = assay: Cell proliferation assay (ATPlite), HCC827; type: cell-based; settings: 4 days, read-out: Growth inhibition (IC50)
Experimental: (§1) Cell proliferation assays were performed in various oncology cell lines, including breast cancer (BT474 and MDA-MB468), leukemia (K562 CML and MV4;11 AML), colon (HCT116), prostate cancer (PC-3), Tarceva- and Iressa-resistant non-small cell lung cancer (NSCLC, […] and H1975), gastric cancer (N87) as well as glioblastoma (A172) cell lines. […] Cell viability at day 4 was measured by the amount of ATP present in viable cells using ATPlite assay kit according to manufacturer's protocol (Perkin Elmer, Boston, Mass.). IC50 was calculated by fitting the data using XLfit software.

HSP90α = HSP90α (Homo sapiens, UniProt P07900); assay: HSP90α affinity; type: binding
A172(glioblastoma) = assay: Cell proliferation assay (ATPlite), A172; type: cell-based; settings: 4 days, read-out: Growth inhibition (IC50)
Experimental: as §1

K562 (leukemia) = assay: Cell proliferation assay (ATPlite), K562; type: cell-based; settings: 4 days, read-out: Growth inhibition (IC50)
MDA-MB468 (breast) = assay: Cell proliferation assay (ATPlite), MDA-MB468; type: cell-based; settings: for IC50: read-out: Growth inhibition (IC50)
HCT116 (colon) = assay: Cell proliferation assay (ATPlite), HCT116; type: cell-based; settings: 4 days, read-out: Growth inhibition (IC50)
H1975 (lung) = assay: Cell proliferation assay (ATPlite), H1975; type: cell-based; settings: 4 days, read-out: Growth inhibition (IC50)
Experimental: as §1

N87 (gastric) = assay: Cell proliferation assay (ATPlite), N87; type: cell-based; settings: read-out: Growth inhibition (IC50)
MDA231 (breast) = assay: Cell proliferation assay (ATPlite), MDA231; type: cell-based; settings: 4 days, read-out: Growth inhibition (IC50)
BT474 (breast) = assay: Cell proliferation assay (ATPlite), BT474; type: cell-based; settings: read-out: Growth inhibition (IC50)
[1] = In vitro conversion/stability of prodrug in artificial gastric fluid (pepsin solution, pH 1.1); type: in vitro ADME; settings: artificial gastric fluid pH 1.1; at 60 minutes
Experimental: (§2) Hydrolysis of prodrug in vivo was estimated by incubating phosphate prodrugs in vitro with mouse small intestine and liver homogenates, mouse plasma, and artificial gastric fluid. Plasma was freshly collected from nude mice. Liver and intestine homogenates were prepared by adding 3 volume of saline to freshly collected mouse tissues and homogenized using glass homogenizer. Gastric fluid was prepared by adding 80 mL of 1M hydrochloric acid to 800 mL of water and then supplementing with 2.0 g of sodium chloride and 3.2 g of pepsin powder. The final volume of the artificial gastric fluid was adjusted with water to 1000 mL (pH=1.1). […] 100 μL samples were collected at 0, 2, 5, 15, 30 and 60 minutes. 5 volumes methanol containing internal standard was added immediately. For samples from gastric fluid incubation, 1 volume of 0.01 M Sodium hydroxide was added before injection into LC/MS/MS. All samples were analyzed by LC/MS/MS to quantitate the concentration of 1a, 1b and the corresponding parent drugs. The concentration of the parent drugs of 1a and 1b was quantitated using standard curve prepared using each vehicle.
(§3) We then evaluate other prodrug conversion in vitro using tissue homogenates and a mimic of gastric fluid (pepsin solution at pH 1.1).

[2] = In vitro partition between plasma and cells in mouse whole blood; type: in vitro ADME; settings: for Test article concentration in cellular elements / Test article concentration in plasma: mouse whole blood spiked at 5 μg/mL, 37° C.; for Partition of the test articles between plasma and cells: mouse whole blood, 5 μg/mL
Experimental: The whole blood was withdrawn from mice via cardio-puncture and placed in EDTA anticoagulant tubes. The test articles were spiked to whole blood at final concentration of 5 μg/mL (at least 2 mL) and incubated at 37° C. 200 μL whole blood was taken at 0 (immediate after incubation), 5 min, 15 min and 30 min and then was centrifuged to separate plasma and cellular elements. Plasma was transferred to clean tubes. 50 μL of plasma and cellular elements were processed by addition of 3 volumes (150 μl) of ice-cold methanol. After centrifugation, the supernatants were subjected to LC-MS/MS analysis of test articles in both plasma and cellular elements.

[3] = Solubility of phosphate prodrugs in organic- and aqueous-based media; type: physicochemical; settings: for solubility: read-out: Maximum observed solubility
Experimental: Crystalline phosphate drugs 1a and 1b were tested first in several different organic- and aqueous-based media, including water, PBS, ETOH, DMA, CMC, and PG.
The maximum observed solubilities with small lots of crystalline drug in 4-mL glass clear tubes were: […]

[4] = In vitro conversion/stability of prodrug in plasma; type: in vitro ADME; settings: mouse plasma; at 60 minutes
Experimental: as §2, §3

MCF-7 xenograft tumors = settings: mice bearing MCF-7 xenograft tumors; intraperitoneally, 200 mg/kg; DMSO/EtOH/phosphate-buffered saline 1:1:1; cited from earlier work
[5] = Solubility for oral formulation of PU24FCl; type: physicochemical; settings: in our hands
From the text: More recently, other novel non-natural product Hsp90 inhibitors have been reported (e.g. PU3 and CCT018159; see Chiosis et. al. Bioorg. Med. Chem. Lett. 2002, 10, 3555-3564; Vilenchik et. al. Chem. Biol. 2004, 11, 787-797; Chiosis et. al. WO 0236075, 2002; Drysdale et. al. WO 03/055860 A1, 2003; Wright et. al. Chem. Biol. 2004, 11, 775-785; Dymock et. al. Bioorg. Med. Chem. Lett. 2004, 14, 325-328; Dymock et. al. J. Med. Chem. 2005, 48, 4212-4215. Structure of Hsp90 in complex with PU3 pdb code 1UY6, and with PU24FCl: pdb code 1UYF and Clevenger et. al. Org. Lett. 2004, 6, 4459-4462). […] The 8-benzyladenines such as PU3 were designed to adopt the same C-shaped conformation as geldanamycin (Chiosis et. al. Current Cancer Drug Targets, 2003, 3, 371-376) with the adenine ring pointing to the adenine-binding site (hinge region), and the trimethoxybenzene ring emulating the H-bond accepting nature of the quinone ring of geldanamycin. […]

[6] = MDA-MB468 (breast), 4 days, ATPlite
[7] = BT474 (breast), 4 days, cell viability by ATPlite

IC50 (MV4;11 (leukemia)) [nM] | IC50 (HCC827 (lung)) [nM] | HSP90α affinity (HSP90α) | IC50 (K562 (leukemia)) [nM] | IC50 (MDA-MB468 (breast); [6]) [nM] | IC50 (HCT116 (colon)) [nM] | IC50 (H1975 (lung)) [nM] | IC50 (BT474 (breast); [7]) [nM] | SMILES | IC50 (N87 (gastric); N87 (gastric), 4 days, ATPlite) [nM] | IC50 (MDA231 (breast)) [nM] | Prodrug intact in artificial gastric fluid [1] | Test article concentration in cellular elements ([2]; 0 min) [ng/mL] | Test article concentration in plasma ([2]; 0 min) [ng/mL] | Test article concentration in cellular elements ([2]; 5 min) [ng/mL] | Test article concentration in plasma ([2]; 5 min) [ng/mL] | Test article concentration in cellular elements ([2]; 15 min) [ng/mL] | Test article concentration in plasma ([2]; 15 min) [ng/mL] | Test article concentration in cellular elements ([2]; 30 min) [ng/mL] | Test article concentration in plasma ([2]; 30 min) [ng/mL] | Partition of the test articles between plasma and cells [2] | further results
3 | 31 | 21 nM | 6 | 9 | 9 | 25 | 7 | O=C1OCC/C=C/CC/C=C/C(=N\OCC(=O)N2CCCCC2)Cc2c(Cl)c(O)cc(O)c21 [1a parent] | 4 | 7 |  |  |  |  |  |  |  |  |  |  | IC50 (A172(glioblastoma)): 42 nM
2 |  | 15 nM | 4 | 2 | 11 |  | 2 | O=C1OCC/C=C/CC/C=C/C(=N\OCC(=O)N2CCCCC2)Cc2cc(O)cc(O)c21 [1b parent] | 1 | 2 |  |  |  |  |  |  |  |  |  |  | 
 |  |  |  |  |  |  |  | O=C1OCC/C=C/CC/C=C/C(=N\OCC(=O)N2CCCCC2)Cc2c(Cl)c(OP(=O)(O)O)cc(O)c21 [Compound 1a] |  |  | about 70% | 1893.93 | 7988.91 | 1632.69 | 7654.94 | 1655.20 | 8123.27 | 1956.15 | 9680.38 | The concentration of 1a and 1b in plasma is larger than the nominated concentration in whole blood (5 μg/mL), which indicated that the partition of the test articles was mainly in plasma. | solubility ([3]; 0.5% CMC/0.1% Tween-20/0.45% NaCl): 87.5 mg/mL (≈ 157 mM); solubility ([3]; PBS): 55 mg/mL (≈ 98.8 mM); Solubility in water and PBS compared to the parent drugs [3]: very soluble; Prodrug intact in plasma [4]: about 90%
11 | 56 |  | 48 | 780 |  | 35 | 5 | C=CCNC1=C2C[C@@H](C)C[C@H](OC)[C@H](O)[C@@H](C)/C=C(\C)[C@H](OC(N)=O)[C@@H](OC)/C=C\C=C(/C)C(=O)NC(=CC1=O)C2=O [Compound 17AAG, 17-allylamino-17-demethoxygeldanamycin, reference compound] | 1 |  |  |  |  |  |  |  |  |  |  |  | Anti-proliferative activity against MDA-MB468 (MDA-MB468 (breast); MDA-MB468): significantly less sensitive
 |  |  |  |  |  |  |  | C#CCCCn1c(Cc2cc(OC)c(OC)c(OC)c2Cl)nc2c(N)nc(F)nc21 [PU24FCl] |  |  |  |  |  |  |  |  |  |  |  |  | Tumor growth (MCF-7 xenograft tumors): significantly repressed tumor growth; Solubility for oral formulation and delivery [5]: too insoluble

SMILES | IC50 (MV4;11 (leukemia)) [nM] | IC50 (HCC827 (lung)) [nM] | HSP90α affinity (HSP90α) | IC50 (K562 (leukemia)) [nM] | IC50 (MDA-MB468 (breast); [6]) [nM] | IC50 (HCT116 (colon)) [nM] | IC50 (H1975 (lung)) [nM] | IC50 (BT474 (breast); [7]) [nM] | IC50 (N87 (gastric); N87 (gastric), 4 days, ATPlite) [nM] | IC50 (MDA231 (breast)) [nM] | Prodrug intact in artificial gastric fluid [1] | Test article concentration in cellular elements ([2]; 0 min) [ng/mL] | Test article concentration in plasma ([2]; 0 min) [ng/mL] | Test article concentration in cellular elements ([2]; 5 min) [ng/mL] | Test article concentration in plasma ([2]; 5 min) [ng/mL] | Test article concentration in cellular elements ([2]; 15 min) [ng/mL] | Test article concentration in plasma ([2]; 15 min) [ng/mL] | Test article concentration in cellular elements ([2]; 30 min) [ng/mL] | Test article concentration in plasma ([2]; 30 min) [ng/mL] | Partition of the test articles between plasma and cells [2] | further results
O=C1OCC/C=C/CC/C=C/C(=N\OCC(=O)N2CCCCC2)Cc2cc(OP(=O)(O)O)cc(O)c21 [Compound 1b] |  |  | >10 000 nM |  |  |  |  |  |  |  | about 70% | 1999.60 | 7119.50 | 1364.01 | 7833.27 | 1070.97 | 7672.71 | 1237.82 | 7409.47 | The concentration of 1a and 1b in plasma is larger than the nominated concentration in whole blood (5 μg/mL), which indicated that the partition of the test articles was mainly in plasma. | Binding to Hsp90 in vitro (HSP90α): does not bind; IC50 (MDA-MB468 (breast); Homo sapiens, MDA-MB-468, 96 h): 37 nM; Solubility in water and PBS compared to the parent drugs [3]: very soluble; IC50 (N87 (gastric); 96 h): 19 nM; Prodrug intact in plasma [4]: about 90%; IC50 (BT474 (breast); Homo sapiens, BT-474, 96 h): 14 nM
